Results on one compound are retold here after US20230118142A1, “AGENTS FOR USE IN THE TREATMENT OF TISSUE DAMAGE” (UCL BUSINESS LTD, priority 2020, published 2023).

Series [1] concerns the target T1, CRP (Homo sapiens, UniProt P02741).
T1 sequence (P02741 19-224): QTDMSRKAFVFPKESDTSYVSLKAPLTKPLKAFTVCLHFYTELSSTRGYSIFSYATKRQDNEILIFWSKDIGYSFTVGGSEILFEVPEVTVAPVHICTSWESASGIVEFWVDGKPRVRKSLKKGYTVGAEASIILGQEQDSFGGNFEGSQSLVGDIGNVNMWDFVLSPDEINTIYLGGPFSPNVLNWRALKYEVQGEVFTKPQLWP
Put plainly: Roche immunoturbidimetric assay: pure CRP. It counts as binding. Also noted: The final concentrations were 0.73 μM native pentameric CRP; from tissue. The settings on record: pure CRP in TC buffer; read-out: IC50 (μM), SD; inhibition of Roche CRP immunoreactivity. The gist of the method: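 Purified human CRP (final 0.73 μM pentamer) incubated 1 h at 37° C with ligand (final 625-0.03 μM) in TC buffer. Remaining CRP quantified by Roche microparticle-enhanced immunoturbidimetric assay, one antibody recognising the ligand-binding B-face, as % of buffer control; EC50 from 4-parameter logistic fit.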

The target in series [2] is T1, CRP. Put plainly: Immobilised phosphocholine plate assay (125I-CRP binding). Also noted: The final concentrations were 0.73 μM native pentameric CRP; from tissue. Particulars: read-out: IC50 for inhibition of 125I-CRP binding to immobilised phosphocholine. As for the experimental part:
(i) Phosphocholine was immobilised on Greiner NHS-activated microtitre plates by incubation with 4-aminophenyl-1-phosphocholine. Remaining active sites were blocked by incubation with 4% w/v BSA in TC buffer (TCB).
(ii) Human CRP at 1 μg/ml in TC buffer was spiked with ^125I-labelled CRP to provide 10^6 cpm/ml.
(iii) Compounds were prepared from up to 10 mM stock solutions by dilution in TC buffer to 0.5 mM (labelled S1). Serial dilutions were prepared by diluting 100 μl ligand solution with 200 μl TC buffer (S2-S10). A ligand-free control was also used (SO, TC only).
(iv) A 100 μl volume of CRP solution was incubated with 10 μl of each compound (S1-S10, SO) for 1 h at room temperature without stirring, to provide final ligand concentrations across the range 45.5 μM-6.9 nM with a ligand:CRP monomer molar ratio of 1151-0.06. In some cases, single fixed ligand concentrations were also assayed in comparison with PC.
(v) A 100 μl volume of each CRP-ligand mixture was added to the plate wells and incubated for 2 h at room temperature. Solutions were then discarded and the plates washed with TCB buffer. Bound radioactivity was measured (1 min counts) using a gamma counter (Perkin Elmer Wizard 2470).
(vi) Data were plotted with Sigmaplot v14 software using the 4-parameter logistic curve y=min+(max−min)/(1+(x/EC50)^−Hill slope) to calculate IC50.

Series [3] deals with T1, CRP. Put plainly: Size exclusion chromatography of CRP/ligand cross linking. It counts as binding. Details: The final concentrations were 0.73 μM native pentameric CRP; from tissue.
Series [4] in a line: In vivo clearance of ligand. The settings on record: male, C57BL/6, mouse, plasma, 0.5 mg; mice, intravenous; read-out: plasma t1/2 of ligand. As for the experimental part: (i) Ligand (0.5 mg/animal) dissolved in PBS or saline (200 μl) was injected intravenously into the tail vein of six male; 23-27 week old wild-type C57BL/6 mice. Up to two blood samples plus a terminal sample per mouse were collected at each time point up to 180 minutes.
(ii) Serum was prepared and ˜200 ng of internal standard (either ^2H4-BPC6 or BPC9) added. Serum proteins were precipitated with 4 volumes of either ice cold methanol or acetonitrile. The supernatant was dried under vacuum and re-dissolved in 0.1% v/v aqueous formic acid. (iii) Samples were chromatographed on a Phenomenex Aqua column using a gradient of 0.1% v/v formic acid-60% v/v acetonitrile in formic acid, and the eluate passed into the positive ion source of a Quattro II triple quadrupole mass spectrometer. The MRM transitions used were m/z 449.3→390.2 and 453.→394.2 (BPC6) and m/z 477.3→418.3, […] (BPC8).
(iv) Ligand concentrations were measured against an extracted standard curve and were plotted using Sigmaplot (v14) and fitted to a 2-parameter exponential decay.

For the compound `O=P(O)(OCCCCCCCCOP(=O)(O)O[C@@H]1CN2CCC1CC2)O[C@@H]1CN2CCC1CC2` [Pk-023, [(3S)-1-azabicyclo[2.2.2]octan-3-yloxy]({[8-({[(3S)-1-azabicyclo[2.2.2]octan-3-yloxy](hydroxy)phosphoryl}oxy)octyl]oxy})phosphinic acid], the IC50 – broadly, the concentration that inhibits the measured activity by half – was 0.6 µM at CRP [1] and 150 nM on CRP [2]. Further, the Stable to rechromatography result on CRP [3] (CRP/ligand complex re-chromatographed in absence of free ligand) was “remained intact and Yes”. In addition, the “CRP elution volume from Superdex 200 after pre-incubation with ligand” value at CRP [3] (native CRP pentamer elutes at 13.9 ml) worked out at 12.6 mL. The half-life in series [4] is approximately 15 min.
